Among the data in PubChem BioAssay (NCI) are TGI and GI50 values, retold here.

Some test systems named below: 786-0 renal; ACHN renal; HT29 colon; MOLT-4 leukemia; PC-3 prostate; RXF 393 renal; SF-295 CNS; SF-539 CNS; SNB-19 CNS; U251 CNS.
Assay in all cases: DTP human tumour cell line panel, 48 h

Where “and” joins values, the source holds several entries; their conditions need not be identical. Identical values can stand only once.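 48-hour exposure; five concentrations; linearly interpolated endpoints. GI50: concentration for 50% inhibition of growth. TGI: total growth inhibition.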 A value given as a limit tells only on which side of the number the result lay.

`OCC(O)C(O)C(O)C1SC(c2ccccc2)=NN1c1ccccc1` (centres undefined): the TGI is above 100 µM in the test with 786-0 renal; above 83 µM in the test with ACHN renal; above 100 µM with HT29 colon; above 100 µM in the test on MOLT-4 leukemia; above 100 µM with PC-3 prostate; 47.9 µM in the test with RXF 393 renal. In addition, the TGI is above 100 µM in the test with SF-295 CNS, 98.7 µM with SF-539 CNS, above 89.8 µM in the test on SNB-19 CNS and above 100 µM in the test with U251 CNS.
Turning to `Fc1ccc(Oc2nccc(-c3c(-c4ccc(F)cc4)ncn3C3CCNCC3)n2)cc1`, the GI50 was above 25 µM with 786-0 renal; above 25 µM in the test on ACHN renal; 14.7 µM with HT29 colon; above 25 µM in the test on MOLT-4 leukemia; above 25 µM in the test with PC-3 prostate; above 25 µM with RXF 393 renal. Moreover, the GI50 in the test on SF-295 CNS, with SF-539 CNS, with SNB-19 CNS and in the test with U251 CNS was above 25 µM each time. For the same compound, the TGI in the test with 786-0 renal, in the test on ACHN renal, in the test with HT29 colon, in the test with MOLT-4 leukemia, with PC-3 prostate and in the test with RXF 393 renal was above 25 µM in each case. Also, the TGI in the test on SF-295 CNS, in the test on SF-539 CNS, in the test on SNB-19 CNS and in the test on U251 CNS was above 25 µM in each case.
On to `Nc1ccc(C(=O)c2ccc(N)c(Br)c2)cc1Br`, for which the GI50 is 0.775 µM with 786-0 renal; 1.47 µM in the test with ACHN renal; 0.335 µM in the test with HT29 colon; 0.654 µM with MOLT-4 leukemia; 0.392 µM in the test on PC-3 prostate; 0.279 µM in the test on RXF 393 renal. Also, the GI50 was 0.228 µM in the test with SF-295 CNS, 0.296 µM with SF-539 CNS, 0.637 µM in the test on SNB-19 CNS and 0.419 µM in the test with U251 CNS. The TGI was 17.8 µM with 786-0 renal; above 69.9 µM in the test on ACHN renal; 1.18 µM in the test on HT29 colon; 59.4 µM in the test with MOLT-4 leukemia; above 63.4 µM in the test with PC-3 prostate; 0.882 µM in the test on RXF 393 renal. Besides, the TGI in the test with SF-295 CNS was 0.664 µM; with SF-539 CNS, 3.16 µM; in the test on SNB-19 CNS, above 100 µM; in the test with U251 CNS, 18.3 µM.
As to `CCOC(=O)CCCn1c(SC)nc2cc(-c3ccco3)[nH]c2c1=O`, the GI50 in the test with 786-0 renal is 34.2 µM; with ACHN renal it was 31.7 µM; in the test with HT29 colon, above 100 µM; in the test on MOLT-4 leukemia, above 100 µM; with PC-3 prostate it was above 100 µM; in the test with RXF 393 renal, 12 µM. Also, the GI50 in the test with SF-295 CNS is 16.7 µM; in the test on SF-539 CNS, 20.4 µM; in the test with SNB-19 CNS it was 19.8 µM; in the test with U251 CNS, 17.1 µM. Also, the TGI in the test with 786-0 renal was above 100 µM; in the test on ACHN renal, above 100 µM; with HT29 colon it was above 100 µM; with MOLT-4 leukemia, above 100 µM; in the test on PC-3 prostate, above 100 µM; in the test with RXF 393 renal, 30.6 µM. Further, the TGI in the test on SF-295 CNS is 54.8 µM; in the test with SF-539 CNS it was 53.2 µM; in the test on SNB-19 CNS, 65.6 µM; in the test with U251 CNS, 56 µM.
Regarding `O=C(NC1CC1)c1ccc(-c2nc3ccc4[nH]ncc4c3c3c2CCCC3)cc1`, the GI50 in the test on 786-0 renal was 2.11 µM; in the test with ACHN renal it was 1.03 µM; with HT29 colon it was 2.05 µM; with MOLT-4 leukemia it was 1.75 µM; in the test on PC-3 prostate, 2.29 µM; in the test with RXF 393 renal, 0.967 µM. Moreover, the GI50 was 2.24 µM in the test with SF-295 CNS, 1.32 µM with SF-539 CNS, 4.47 µM in the test with SNB-19 CNS and 2.19 µM with U251 CNS. Also, the TGI was 12.3 µM in the test with 786-0 renal; above 50 µM in the test with ACHN renal; above 50 µM in the test with HT29 colon; 20.1 µM in the test on MOLT-4 leukemia; 29.7 µM with PC-3 prostate; 4.03 µM with RXF 393 renal. Moreover, the TGI in the test with SF-295 CNS is 13.6 µM; in the test on SF-539 CNS, 6.68 µM; in the test on SNB-19 CNS it was above 50 µM; in the test on U251 CNS, 13.7 µM.
On to `c1ccc(C(=NNc2nc3ccccc3o2)c2ccccn2)nc1`, for which the 50% growth inhibitory concentration (GI50) in the test on 786-0 renal is 0.125 µM; in the test on ACHN renal, 0.0395 µM; in the test with HT29 colon, below 0.0361 µM; in the test on MOLT-4 leukemia, 0.0316 µM; with PC-3 prostate, 0.0436 µM; with SF-539 CNS, 0.112 µM. The GI50 with U251 CNS was 0.0649 µM. Moreover, the TGI is > 66.8 µM and 12.7 µM in the test on HT29 colon; above 56.5 µM in the test on MOLT-4 leukemia; 26.6 µM and 13.8 µM in the test with PC-3 prostate; 5.96 µM and 3.95 µM with RXF 393 renal; 12.6 µM and 3.7 µM in the test with SF-295 CNS; > 46 µM and 33.7 µM with SNB-19 CNS. For the same compound, the TGI in the test with U251 CNS is 20.1 µM and 16.1 µM.
Consider `Cc1ccccc1C(=O)C#Cc1cn(C2CC(O)C(CO)O2)c(=O)[nH]c1=O` (centres undefined), for which the TGI is above 100 µM with 786-0 renal; above 100 µM in the test on ACHN renal; above 100 µM in the test with HT29 colon; 92.5 µM with MOLT-4 leukemia; above 100 µM in the test on PC-3 prostate; above 100 µM with RXF 393 renal. For the same compound, the TGI with SF-295 CNS, in the test on SF-539 CNS, in the test on SNB-19 CNS and in the test on U251 CNS was above 100 µM throughout.
For `O=C1C(=Cc2ccco2)C(=O)C2CCCCC12` (centres undefined), the TGI with 786-0 renal, with ACHN renal, with HT29 colon, with MOLT-4 leukemia, in the test on PC-3 prostate and with RXF 393 renal was above 100 µM each time. In addition, the total growth inhibition concentration (TGI) in the test with SF-295 CNS, in the test on SF-539 CNS, with SNB-19 CNS and in the test on U251 CNS was above 100 µM each time.
`COc1ccc(CNc2nc3cc(N)cc(N)c3nc2-c2ccccc2)cc1OC`: the GI50 with 786-0 renal is 15.7 µM; in the test on ACHN renal, 14.4 µM; in the test with HT29 colon, 7.26 µM; with MOLT-4 leukemia, 3.92 µM; with PC-3 prostate, 10.9 µM; in the test on RXF 393 renal, 12.7 µM. Besides, the GI50 in the test on SF-295 CNS was 15.3 µM; in the test with SF-539 CNS, 18.9 µM; with SNB-19 CNS it was 20.1 µM; in the test with U251 CNS, 17.3 µM. Further, the TGI in the test with 786-0 renal is 33.5 µM; with ACHN renal, 32 µM; in the test on HT29 colon, 46.2 µM; in the test with MOLT-4 leukemia it was above 100 µM; with PC-3 prostate, 29.1 µM; in the test on RXF 393 renal, above 93.5 µM. Moreover, the TGI is 29.8 µM in the test with SF-295 CNS, 41.1 µM with SF-539 CNS, above 61 µM in the test on SNB-19 CNS and 38.1 µM in the test with U251 CNS.

What is called TGI is the concentration at which net growth stops. The low end stands for more potent growth arrest, the high end for less potent growth arrest. For orientation: GI50 means the concentration at which growth is held to half of that of the control.
